Measured values reported in patent US8008291B2 (Mimetica Pty Ltd, priority 2008, dated 2011).

Target: T1, human MC5R (hMC5R) (Homo sapiens, UniProt P33032)
T1 construct: purchased Perkin Elmer RBXMC5M400UA
Experiment: Human MC5R radioligand binding assay (membranes, [125I] NDP-MSH displacement)
Conditions: hMC5R binding; tested as trifluoroacetate or hydrochloride salts, or free bases; read-out: MC5R radioligand IC50
Description: Assessments of compound binding to human MC5R (hMC5R) ) by displacement of an ^125I-labeled NDP-MSH receptor ligand peptide were performed essentially as described in the data sheets produced by Perkin Elmer to accompany their frozen hMC5R membranes (Perkin Elmer catalog number RBXMC5M400UA).
[^125I] NDP-MSH: radiolabeled in house and purified by HPLC:
• Na^125I (0.5 mCi, 17.4 Ci/mg) was added to 50 μL sodium phosphate (50 mM, pH7.4) in an eppendorf tube precoated with IODOGEN. After incubation for 10 mins the phosphate buffer containing the iodine was added to NDP-MSH (10 ul at 1 mg/mL) in a separate eppendorf tube. This was incubated for a further 10 mins. The iodinated NDP-MSH was purified by HPLC on a Zorbax SB 300 column using solvent A: 0.05% TFA and solvent B: 90% acetonitrile 0.045% TFA with a linear gradient, 0-67% B over 60 mins. […] Resuspended membranes were kept on ice until they were added to the wells of the plate. Binding Protocol for 400 microassays per vial: • Assays were performed in 96 well polypropylene plates. […] This was incubated for 1 hr at 37° C.

T1 sequence (P33032 whole entry): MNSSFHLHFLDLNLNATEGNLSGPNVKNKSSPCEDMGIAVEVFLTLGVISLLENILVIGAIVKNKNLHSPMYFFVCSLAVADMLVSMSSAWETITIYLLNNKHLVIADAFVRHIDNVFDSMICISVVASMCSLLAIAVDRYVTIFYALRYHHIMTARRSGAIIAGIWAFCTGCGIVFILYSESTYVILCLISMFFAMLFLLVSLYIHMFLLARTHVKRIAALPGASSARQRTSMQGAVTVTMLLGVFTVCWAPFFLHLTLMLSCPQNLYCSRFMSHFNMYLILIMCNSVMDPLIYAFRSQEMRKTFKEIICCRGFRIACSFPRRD

Compound	IC50 [nM]
N=C(N)NCCC[C@@H]1N[C@H](CNC(=O)/C=C/c2ccccc2O)CCN(CC(c2ccccc2)c2ccccc2)C1=O [Compound 189, (E)-N-(((3S,5S)-1-(2,2-diphenylethyl)-3-(3-guanidinopropyl)-2-oxo-1,4-diazepan-5-yl)methyl)-3-(2-hydroxyphenyl)acrylamide]	< 1000
N=C(N)NCCC[C@@H]1N[C@H](CNC(=O)/C(F)=C/c2ccccc2)CCN(CC(c2ccccc2)c2ccccc2)C1=O [Compound 195, (Z)-N-(((3S,5S)-1-(2,2-diphenylethyl)-3-(3-guanidinopropyl)-2-oxo-1,4-diazepan-5-yl)methyl)-2-fluoro-3-phenylacrylamide]	< 1000
C[C@@H](N1CC[C@@H](CNC(=O)c2ccc3ccccc3c2)N[C@@H](CCCNC(=N)N)C1=O)C(F)(c1ccccc1)c1ccccc1 [Compound 206, N-(((3S,5S)-1-((R)-1-fluoro-11-diphenylpropan-2-yl)-3-(3-guanidinopropyl)-2-oxo-1,4-diazepan-5-yl)methyl)-2-naphthamide]	< 1000
CCOc1ccc(/C=C/C(=O)NC[C@@H]2CCN(CC(c3ccccc3)c3ccccc3)C(=O)[C@H](CCCNC(=N)N)N2)cc1 [Compound 210, (E)-N-(((3S,5S)-1-(2,2-diphenylethyl)-3-(3-guanidinopropyl)-2-oxo-1,4-diazepan-5-yl)methyl)-3-(4-ethoxyphenyl)acrylamide]	< 100
NCCC[C@@H]1N[C@H](CNC(=O)c2ccc3cc(Br)ccc3c2)CCN(CC(c2ccccc2)c2ccccc2)C1=O [Compound 211, N-(((3S,5S)-3-(3-aminopropyl)-1-(2,2-diphenylethyl)-2-oxo-1,4-diazepan-5-yl)methyl)-6-bromo-2-naphthamide]	< 100
NCCC[C@@H]1N[C@H](CNC(=O)C=Cc2ccccc2)CCN(CC(c2ccccc2)c2ccccc2)C1=O [Compound 212, N-(((3S,5S)-3-(3-aminopropyl)-1-(2,2-diphenylethyl)-2-oxo-1,4-diazepan-5-yl)methyl)cinnamamide]	< 1000
CCCCC(CC)C(=O)NC[C@@H]1CCN(CC(c2ccccc2)c2ccccc2)C(=O)[C@H](CCCN)N1 (stereo partly drawn) [Compound 221, N-(((3S,5S)-3-(3-aminopropyl)-1-(2,2-diphenylethyl)-2-oxo-1,4-diazepan-5-yl)methyl)-2-ethylhexanamide]	< 10000
CCCCC(CC)C(=O)NC[C@@H]1CCN(CC(c2ccccc2)c2ccccc2)C(=O)[C@H](CCCNC(=N)N)N1 (stereo partly drawn) [Compound 224, N-(((3S,5S)-1-(2,2-diphenylethyl)-3-(3-guanidinopropyl)-2-oxo-1,4-diazepan-5-yl)methyl)-2-ethylhexanamide]	< 1000
CC(C)NCCCC[C@@H]1N[C@H](CNC(=O)c2ccc3ccccc3c2)CCN(CC(c2ccccc2)c2ccccc2)C1=O [Compound 229, N-(((3S,5S)-1-(2,2-diphenylethyl)-3-(4-(isopropylamino)butyl)-2-oxo-1,4-diazepan-5-yl)methyl)-2-naphthamide]	< 100
NCCC[C@@H]1N[C@H](CNC(=O)COc2ccc(F)cc2)CCN(CC(c2ccccc2)c2ccccc2)C1=O [Compound 233, N-(((3S,5S)-3-(3-aminopropyl)-1-(2,2-diphenylethyl)-2-oxo-1,4-diazepan-5-yl)methyl)-2-(4-fluorophenoxy)acetamide]	< 1000
Cc1c(C(=O)NC[C@@H]2CCN(CC(c3ccccc3)c3ccccc3)C(=O)[C@H](CCCN)N2)cnn1-c1ccccc1 [Compound 241, N-(((3S,5S)-3-(3-aminopropyl)-1-(2,2-diphenylethyl)-2-oxo-1,4-diazepan-5-yl)methyl)-5-methyl-1-phenyl-1H-pyrazole-4-carboxamide]	< 10000
COc1ccc(C(CN2CC[C@@H](CNC(=O)c3ccc4ccccc4c3)N[C@@H](CCCNC(=N)N)C2=O)c2ccc(OC)cc2)cc1 [Compound 244, N-(((3S,5S)-1-(2,2-bis(4-methoxyphenyl)ethyl)-3-(3-guanidinopropyl)-2-oxo-1,4-diazepan-5-yl)methyl)-2-naphthamide]	< 10000
O=C(NC[C@@H]1CCN(CC(c2ccccc2)c2ccccc2)C(=O)[C@H](CCCNCc2ccccc2)N1)c1ccc2ccccc2c1 [Compound 245, N-(((3S,5S)-3-(3-(benzylamino)propyl)-1-(2,2-diphenylethyl)-2-oxo-1,4-diazepan-5-yl)methyl)-2-naphthamide]	< 100
O=C(NC[C@@H]1CCN(CC(c2ccccc2)c2ccccc2)C(=O)[C@H](CCCNC2CCC2)N1)c1ccc2ccccc2c1 [Compound 247, N-(((3S,5S)-3-(3-(cyclobutylamino)propyl)-1-(2,2-diphenylethyl)-2-oxo-1,4-diazepan-5-yl)methyl)-2-naphthamide]	< 100

Now from value to compound:

IC50 [nM]	Compound
< 1000	CC(CN1CC[C@@H](CNC(=O)c2ccc3ccccc3c2)N[C@@H](CCCNC(=N)N)C1=O)(c1ccccc1)c1ccccc1 [Compound 200, N-(((3S,5S)-1-(2,2-diphenylpropyl)-3-(3-guanidinopropyl)-2-oxo-1,4-diazepan-5-yl)methyl)-2-naphthamide]
< 1000	N=C(N)NCCC[C@@H]1N[C@H](CNC(=O)c2ccc3ccccc3c2)CCN(CC2CCCCC2)C1=O [Compound 201, N-(((3S,5S)-1-(cyclohexylmethyl)-3-(3-guanidinopropyl)-2-oxo-1,4-diazepan-5-yl)methyl)-2-naphthamide]
< 1000	N=C(N)NCCC[C@@H]1N[C@H](CNC(=O)c2ccc3ccccc3c2)CCN(CC23CC4CC(CC(C4)C2)C3)C1=O [Compound 202, N-(((3S,5S)-1-(1-adamantylmethyl)-3-(3-guanidinopropyl)-2-oxo-1,4-diazepan-5-yl)methyl)-2-naphthamide]
< 100	C[C@@H](C(c1ccccc1)c1ccccc1)N1CC[C@@H](CNC(=O)c2ccc3ccccc3c2)N[C@@H](CCCNC(=N)N)C1=O [Compound 203, N-(((3S,5S)-1-((S)-1,1-diphenylpropan-2-yl)-3-(3-guanidinopropyl)-2-oxo-1,4-diazepan-5-yl)methyl)-2-naphthamide]
< 1000	C[C@H](C(c1ccccc1)c1ccccc1)N1CC[C@@H](CNC(=O)c2ccc3ccccc3c2)N[C@@H](CCCNC(=N)N)C1=O [Compound 204, N-(((3S,5S)-1-((R)-1,1-diphenylpropan-2-yl)-3-(3-guanidinopropyl)-2-oxo-1,4-diazepan-5-yl)methyl)-2-naphthamide]
< 1000	N=C(N)NCCC[C@@H]1N[C@H](CNC(=O)c2ccc3ccccc3c2)CCN(C2CCCCC2)C1=O [Compound 205, N-(((3S,5S)-1-cyclohexyl-3-(3-guanidinopropyl)-2-oxo-1,4-diazepan-5-yl)methyl)-2-naphthamide]
< 10000	N=C(N)NCCC[C@@H]1N[C@H](CNC(=O)c2ccc3ccccc3c2)CCN(c2ccc3ccccc3c2)C1=O [Compound 226, N-(((3S,5S)-3-(3-guanidinopropyl)-1-(naphthalen-2-yl)-2-oxo-1,4-diazepan-5-yl)methyl)-2-naphthamide]
< 10000	N=C(N)NCCC[C@@H]1N[C@H](CNC(=O)c2ccc3ccccc3c2)CCN(CC2c3ccccc3-c3ccccc32)C1=O [Compound 227, N-(((3S,5S)-1-((9H-fluoren-9-yl)methyl)-3-(3-guanidinopropyl)-2-oxo-1,4-diazepan-5-yl)methyl)-2-naphthamide]
< 1000	N=C(N)NCCC[C@@H]1N[C@H](CNC(=O)c2ccc3ccccc3c2)CCN(CCC2CCCCC2)C1=O [Compound 242, N-(((3S,5S)-1-(2-cyclohexylethyl)-3-(3-guanidinopropyl)-2-oxo-1,4-diazepan-5-yl)methyl)-2-naphthamide]
< 1000	N=C(N)NCCC[C@@H]1N[C@H](CNC(=O)c2ccc3ccccc3c2)CCN(CCC2CC3CCC2C3)C1=O (stereo partly drawn) [Compound 243, N-(((3S,5S)-1-(2-(bicyclo[2.2.1]heptan-2-yl)ethyl)-3-(3-guanidinopropyl)-2-oxo-1,4-diazepan-5-yl)methyl)-2-naphthamide]
< 100	O=C(NC[C@@H]1CCN(CC(c2ccccc2)c2ccccc2)C(=O)[C@H](CCCNC2CCCC2)N1)c1ccc2ccccc2c1 [Compound 246, N-(((3S,5S)-3-(3-(cyclopentylamino)propyl)-1-(2,2-diphenylethyl)-2-oxo-1,4-diazepan-5-yl)methyl)-2-naphthamide]
< 10000	N=C(N)NCCC[C@@H]1N[C@H](CNC(=O)c2ccc3ccccc3c2)CCN(Cc2ccccc2)C1=O [Compound 249, N-(((3S,5S)-1-benzyl-3-(3-guanidinopropyl)-2-oxo-1,4-diazepan-5-yl)methyl)-2-naphthamide]
< 100	N=C(N)NCCC[C@@H]1N[C@H](CNC(=O)c2ccc3ccccc3c2)CCN(CC(c2ccc(F)cc2)c2ccc(F)cc2)C1=O [Compound 250, N-(((3S,5S)-1-(2,2-bis(4-fluorophenyl)ethyl)-3-(3-guanidinopropyl)-2-oxo-1,4-diazepan-5-yl)methyl)-2-naphthamide]
< 10000	N=C(N)NCCC[C@@H]1N[C@H](CNC(=O)c2ccc3ccccc3c2)CCN(Cc2ccc3ccccc3c2)C1=O [Compound 251, N-(((3S,5S)-3-(3-guanidinopropyl)-1-(naphthalen-2-ylmethyl)-2-oxo-1,4-diazepan-5-yl)methyl)-2-naphthamide]
